# Assay results published in patent US4426390A, “Novel β-lactam compounds, process for producing thereof, and use thereof as medicines” (Sanraku-Ocean Co., Ltd., priority 1980, dated 1984).
# Like-named read-outs stand apart in the source and are kept apart here.
# Assays:
# Type in all cases: cell-based
# [1] = system: Proteus vulgaris GN76; experiment: Disc assay of synergy, inhibition zones; conditions: for zone of inhibition at 100 µg/mL: Proteus vulgaris
# Protocol: (§1) (B) The presence or absence of synergy is visually checked by the size difference in inhibitory zones observed when the test drug is disc-assayedon an agar plate of a detector microbe and on an agar plate of the detector containing cephaloridine or benzylpenicillin, respectively.
# (§2) One loopful of the stock culture of a test organism is inoculated in heat infusion broth (5 ml/tube), and grown at 37° C. for 18 hours. The culture broth is diluted to a final concentration of about 10^5 cells/ml in nutrient agar with or without benzyl penicillin or cephaloridine, and plated in a Petri dish with a diameter of 9 cm, as shown below.
# (§3) Using the above-prepared agar plates, antibiotic PS-5 (100 μg/ml), antibiotic OA-6129B2 (5,6-trans OA-6129B) (100 μg/ml), benzylpenicillin (1000 μg/ml) and cephaloridine (1000 μg/ml) are subjected to disc assay.
# [2] = system: Enterobacter cloacac 45; experiment: Disc assay of synergy, inhibition zones
# Protocol: as §1, §2, §3
# [3] = system: Serratia marccscens T55; experiment: Disc assay of synergy, inhibition zones; conditions: for zone of inhibition at 100 µg/mL: Serratia
# Protocol: as §1, §2, §3
# [4] = system: Citrobacter Freundii GN346; experiment: Disc assay of synergy, inhibition zones; conditions: for zone of inhibition at 100 µg/mL: Citrobacter freundii
# Protocol: as §1, §2, §3
# [5] = system: Pseudomonas aenginosa IFO3445; experiment: MIC by agar dilution method; conditions: 37° C., 18 hours
# Protocol: (§4) The MIC is measured by an agar dilution method based on the standard method of the Japanese Society of Chemotherapy (Japanese Society of Chemotherapy: The Revised Method of Determination of MIC Values, Chemotherapy 22, 1126-1128, […]). Specifically, the antibiotic is serially diluted with a 1/50 M phosphate buffer at a pH of 7.3 to prepare a twofold dilution series. One milliliter of each dilution and 9 ml of an agar medium (Heart Infusion Agar; a product of Difco Laboratories) are mixed and allowed to solidify in a Petri dish having a diameter of 9 cm. One loopful of the stock culture of the test microbe is inoculated in trypto-soy buillon (a product of Eiken Kagaku Co., Ltd.) and incubated at 37° C. for 18 hours. The resulting culture broth is diluted to a concentration of about 10^6 cells/ml with physiological saline and inoculated on the agar plate by means of a microplanter.
# [6] = system: Bacillus subtillis ATCC 6633; experiment: MIC by agar dilution method; conditions: Bacillus, ATCC6633, 18 h
# Protocol: as §4
# [7] = system: P. vulgaris GN76; experiment: MIC by agar dilution method; conditions: Proteus vulgaris, 37° C., 18 hours
# Protocol: as §4
# [8] = system: Staphylococcus aureus 209P; experiment: MIC by agar dilution method; conditions: 37° C., 18 hours
# Protocol: as §4
# [9] = system: Klebsiella pneumoniae K13; experiment: MIC by agar dilution method; conditions: 37° C., 18 hours
# Protocol: as §4
# [10] = system: Alcaligenes Faecolis A1; experiment: MIC by agar dilution method; conditions: Alcaligenes Faecolis A1; agar dilution, 37° C., 18 hours; read-out: MIC
# Protocol: as §4
# [11] = system: Providencia sp. P8; experiment: MIC by agar dilution method; conditions: Providencia sp. P8; agar dilution, 37° C., 18 hours; read-out: MIC
# Protocol: as §4
# [12] = system: Ser. marcesceus T55; experiment: MIC by agar dilution method; conditions: 37° C., 18 hours
# Protocol: as §4
# [13] = system: Ent. cloacae 45; experiment: MIC by agar dilution method; conditions: Enterobacter cloacae, 37° C., 18 hours
# Protocol: as §4
# [14] = system: P. rettgeri P7; experiment: MIC by agar dilution method; conditions: Providencia rettgeri; P. rettgeri P7; agar dilution, 37° C., 18 hours; read-out: MIC
# Protocol: as §4
# [15] = system: S. epidermidis; experiment: MIC by agar dilution method; conditions: Staphylococcus epidermidis, 37° C., 18 hours
# Protocol: as §4
# [16] = system: E. coli RGN823; experiment: MIC by agar dilution method; conditions: Escherichia coli, 37° C., 18 hours
# Protocol: as §4
# [17] = system: Serratia marcesceus S18; experiment: MIC by agar dilution method; conditions: 37° C., 18 hours
# Protocol: as §4
# [18] = system: S. aureus Smith; experiment: MIC by agar dilution method; conditions: Staphylococcus aureus, 37° C., 18 hours
# Protocol: as §4
# [19] = system: Enterobacter aerogenes E19; experiment: MIC by agar dilution method; conditions: Klebsiella aerogenes, 37° C., 18 hours
# Protocol: as §4
# [20] = system: Comamonas terrigena B996; experiment: MIC by agar dilution method; conditions: 37° C., 18 hours
# Protocol: as §4
# [21] = system: Proteus mirabilis P6; experiment: MIC by agar dilution method; conditions: Proteus mirabilis P6; agar dilution, 37° C., 18 hours; read-out: MIC
# Protocol: as §4
# [22] = system: Escherichia coli K-12; experiment: MIC by agar dilution method; conditions: K12; Escherichia coli K-12; agar dilution, 37° C., 18 hours; read-out: MIC
# Protocol: as §4
# [23] = system: Ent. sp. E8; experiment: MIC by agar dilution method; conditions: Ent. sp. E8; agar dilution, 37° C., 18 hours; read-out: MIC
# Protocol: as §4
# [24] = system: Ps. aeruginosa NCTC10490; experiment: MIC by agar dilution method; conditions: Pseudomonas aeruginosa, 37° C., 18 hours
# Protocol: as §4
# [25] = system: Citrobacter Freundii GN346; experiment: MIC by agar dilution method; conditions: 37° C., 18 hours
# Protocol: as §4
# [26] = system: Sarcina lutea S19; experiment: MIC by agar dilution method; conditions: Micrococcus luteus, 37° C., 18 hours
# Protocol: as §4
# [27] = system: S. aureus Russell; experiment: MIC by agar dilution method; conditions: Staphylococcus aureus; S. aureus Russell; agar dilution, 37° C., 18 hours; read-out: MIC
# Protocol: as §4
# [28] = system: Proteus vulgaris GN76; experiment: Synergistic effect on MIC, microdilution transfer plate technique
# [29] = system: Citrobacter Freundii GN346; experiment: as above
# [30] = plate: + CER, disc OA-6129B2, PS-5 100 μg/ml, CER, PCG 1000 μg/ml
# [31] = plate: + PCG, disc OA-6129B2, PS-5 100 μg/ml, CER, PCG 1000 μg/ml
# [32] = plate: + PCG, reduced to 5 μg/ml (final concentration), disc OA-6129B2, PS-5 100 μg/ml, CER, PCG 1000 μg/ml
# [33] = plate: None, disc OA-6129B2, PS-5 100 μg/ml, CER, PCG 1000 μg/ml
smiles,measurement,setting,value
CC(O)[C@H]1C(=O)N2C(C(=O)O)=C(SCCNC(=O)CCNC(=O)C(O)C(C)(C)CO)C[C@H]12 (relative stereo) [OA-6129B2],zone of inhibition at 100 µg/mL,"[1]; GN76, plate: None, disc OA-6129B2, PS-5 100 μg/ml, CER, PCG 1000 μg/ml, read-out: diameter of inhibition zones",0 mm
same,diameter of inhibition zones,[1]; [30],20.0 mm
same,diameter of inhibition zones,[1]; [31],19.5 mm
same,zone of inhibition at 100 µg/mL,"[2]; Enterobacter, 45, plate: None, disc OA-6129B2, PS-5 100 μg/ml, CER, PCG 1000 μg/ml, read-out: diameter of inhibition zones",10 mm
same,diameter of inhibition zones,[2]; [30],15.0 mm
same,diameter of inhibition zones,[2]; [31],12.0 mm
same,zone of inhibition at 100 µg/mL,"[3]; T55, plate: None, disc OA-6129B2, PS-5 100 μg/ml, CER, PCG 1000 μg/ml, read-out: diameter of inhibition zones",12 mm
same,diameter of inhibition zones,[3]; [30],22.0 mm
same,diameter of inhibition zones,[3]; [32],12.0 mm
same,zone of inhibition at 100 µg/mL,"[4]; GN346, plate: None, disc OA-6129B2, PS-5 100 μg/ml, CER, PCG 1000 μg/ml, read-out: diameter of inhibition zones",12 mm
same,diameter of inhibition zones,[4]; [30],16.0 mm
same,diameter of inhibition zones,[4]; [31],13.0 mm
same,MIC,[5],> 100 µg/mL
same,MIC,[6],1.56 µg/mL
same,MIC,[7],50 µg/mL
same,MIC,[8],6.25 µg/mL
same,MIC,[9],12.5 µg/mL
same,MIC,[10],6.25 µg/mL
same,MIC,[11],6.25 µg/mL
same,MIC,[12],50 µg/mL
same,MIC,[13],50 µg/mL
same,MIC,[14],25 µg/mL
same,MIC,[15],12.5 µg/mL
same,MIC,[16],12.5 µg/mL
same,MIC,[17],25 µg/mL
same,MIC,[18],12.5 µg/mL
same,MIC,[19],25 µg/mL
same,MIC,[20],0.39 µg/mL
same,MIC,[21],50 µg/mL
same,MIC,[22],12.5 µg/mL
same,MIC,[23],25 µg/mL
same,MIC,[24],> 100 µg/mL
same,MIC,[25],25 µg/mL
same,MIC,[26],6.25 µg/mL
same,MIC,[27],12.5 µg/mL
"CC1(C)S[C@@H]2[C@H](NC(=O)[C@H](N)c3ccccc3)C(=O)N2[C@H]1C(=O)O [ABPC, Aminobenzylpenicillin]",MIC of ABPC in combination,[28]; with OA-6129A 1.56 μg/ml,3.3 µg/mL
same,MIC of ABPC in combination,[28]; with OA-6129A 6.25 μg/ml,39 µg/mL
same,MIC of ABPC in combination,[28]; with OA-6129A 25 μg/ml,10 µg/mL
same,MIC of ABPC in combination,[28]; with OA-6129A 50 μg/ml,< 5 µg/mL
same,MIC of ABPC in combination,[28]; with OA-6129A […],156 µg/mL
same,MIC of ABPC in combination,[29]; with OA-6129A 6.25 μg/ml,313 µg/mL
same,MIC of ABPC in combination,[29]; with OA-6129A 25 μg/ml,< 5 µg/mL
same,MIC of ABPC in combination,[29]; with OA-6129A 50 μg/ml,< 5 µg/mL
same,MIC of ABPC in combination,[29]; with OA-6129A […],625 µg/mL
"O=C(Cc1cccs1)N[C@@H]1C(=O)N2C(C(=O)[O-])=C(C[n+]3ccccc3)CS[C@H]12 [CER, Cephaloridine]",zone of inhibition at 100 µg/mL,"[1]; GN76, read-out: diameter of inhibition zones",0 mm
same,diameter of inhibition zones,[1]; [30],0 mm
same,diameter of inhibition zones,[1]; [31],0 mm
same,zone of inhibition at 100 µg/mL,"[2]; Enterobacter, 45, read-out: diameter of inhibition zones",0 mm
same,diameter of inhibition zones,[2]; [30],0 mm
same,diameter of inhibition zones,[2]; [31],0 mm
same,zone of inhibition at 100 µg/mL,"[3]; T55, read-out: diameter of inhibition zones",0 mm
same,diameter of inhibition zones,[3]; [30],0 mm
same,diameter of inhibition zones,[3]; [32],0 mm
same,zone of inhibition at 100 µg/mL,"[4]; GN346, read-out: diameter of inhibition zones",0 mm
same,diameter of inhibition zones,[4]; [30],0 mm
same,diameter of inhibition zones,[4]; [31],0 mm
same,MIC,"[28]; Proteus vulgaris, GN76, alone, heart infusion broth, 10^5 cells/ml",1250 µg/mL
same,MIC of CER in combination,[28]; with OA-6129A 1.56 μg/ml,313 µg/mL
same,MIC of CER in combination,[28]; with OA-6129A 6.25 μg/ml,39 µg/mL
same,MIC of CER in combination,[28]; with OA-6129A 25 μg/ml,< 5 µg/mL
same,MIC of CER in combination,[28]; with OA-6129A 50 μg/ml,< 5 µg/mL
same,MIC of CER in combination,[29]; with OA-6129A 1.56 μg/ml,1250 µg/mL
same,MIC of CER in combination,[29]; with OA-6129A 6.25 μg/ml,313 µg/mL
same,MIC of CER in combination,[29]; with OA-6129A 25 μg/ml,< 5 µg/mL
same,MIC of CER in combination,[29]; with OA-6129A 50 μg/ml,< 5 µg/mL
"CC1(C)S[C@@H]2[C@H](NC(=O)Cc3ccccc3)C(=O)N2[C@H]1C(=O)O [PCG, benzylpenicillin]",diameter of inhibition zones,[1]; [30],0 mm
same,diameter of inhibition zones,[1]; [31],0 mm
same,diameter of inhibition zones,[1]; [33],0 mm
same,diameter of inhibition zones,[2]; [30],0 mm
same,diameter of inhibition zones,[2]; [31],0 mm
same,diameter of inhibition zones,[2]; [33],0 mm
same,diameter of inhibition zones,[3]; [30],0 mm
same,diameter of inhibition zones,[3]; [32],tr.
same,diameter of inhibition zones,[3]; [33],tr.
same,diameter of inhibition zones,[4]; [30],0 mm
same,diameter of inhibition zones,[4]; [31],0 mm
same,diameter of inhibition zones,[4]; [33],0 mm
